Values joined by “and” are separate entries in the source; they are usually repeats but may differ in a detail not shown here. Equal values may be shown once.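 Where inhibition never reached the appropriate level, the endpoint shown equals the highest concentration tested. Otherwise, values were interpolated linearly from a five-concentration, 48-hour dose response in 96-well plates. Abbreviation: GI50, concentration required for 50% inhibition of growth.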 Active and inactive are the calls of the source. Rule as the data show it: active = GI50 up to about 1.1 µM and inactive = higher.

Some test systems named below: NCI-H226; SK-MEL-5; SK-OV-3; UACC-62; SW-620; EKVX; CCRF-CEM; SF-268; COLO 205; SN12C; SNB-75; OVCAR-3; TK-10; OVCAR-5; SNB-19; OVCAR-8; NCI/ADR-RES; DU-145; T47D; Hs-578T.
What all share (assay): inhibition of tumour cell growth, NCI panel, 48 h

Take `C[C@]12Cc3cn[nH]c3C(=O)C1CC[C@@H]1C2CC[C@@]2(C)C1CC[C@@H]2O` (stereo partly specified): the GI50 with NCI-H226, with SK-MEL-5, in the experiment with SK-OV-3, in the experiment with UACC-62, in the experiment on SW-620 and in the experiment on EKVX was > 100 µM (inactive) in each case. The GI50 in the experiment on CCRF-CEM, in the experiment on SF-268, with COLO 205, with SN12C, in the experiment on SNB-75 and in the experiment with OVCAR-3 was > 100 µM (inactive) each time. For the same compound, the GI50 in the experiment on TK-10, with OVCAR-5, in the experiment with SNB-19 and in the experiment on OVCAR-8 was > 100 µM (inactive) throughout.
As to `COC(=O)/N=C(\NC(=O)OC)Nc1ccc(Oc2ccccc2)cc1NC=O`, the GI50 is 0.977 µM (active) in the experiment on NCI-H226; 0.341 µM (active) in the experiment with SK-MEL-5; 0.215 µM (active) with SK-OV-3; 0.573 µM (active) in the experiment with UACC-62; 0.388 µM (active) in the experiment on SW-620; 89.5 µM (inactive) in the experiment with EKVX. Moreover, the GI50 with CCRF-CEM was 0.692 µM (active); with SF-268, 0.673 µM (active); in the experiment on COLO 205, 0.2 µM (active); with SN12C it was 1.58 µM (inactive); in the experiment with SNB-75, 0.421 µM (active); in the experiment with OVCAR-3 it was 0.327 µM (active). Moreover, the GI50 with TK-10 was 9.57 µM (inactive); in the experiment on OVCAR-5, > 100 µM (inactive); with SNB-19, > 100 µM (inactive); with OVCAR-8, 0.593 µM (active).
On to `O=C(O)Cc1ccc(-n2nnc3c(=O)[nH][nH]c(=O)c32)cc1`, for which the GI50 in the experiment on SK-MEL-5, in the experiment on EKVX, in the experiment with NCI/ADR-RES, with CCRF-CEM, with COLO 205 and in the experiment with DU-145 was > 100 µM (inactive) in each case. The GI50 in the experiment with SN12C, in the experiment on OVCAR-3, in the experiment on TK-10, in the experiment on OVCAR-5, with SNB-19 and in the experiment with OVCAR-8 was > 100 µM (inactive) each time.
Turning to `CCOC(=O)NN(C(=O)OCC)c1ccc(/N=N/c2ccc(OC)cc2)n1C`, the GI50 with T47D is 21 µM (inactive); in the experiment on NCI-H226, 26.2 µM (inactive); in the experiment with SK-MEL-5, 17.5 µM (inactive); in the experiment on SK-OV-3 it was 30.7 µM (inactive); in the experiment with UACC-62, 99.1 µM (inactive); in the experiment on EKVX, > 100 µM (inactive). Further, the GI50 in the experiment with Hs-578T was 65.8 µM (inactive); in the experiment on NCI/ADR-RES it was 25.9 µM (inactive); in the experiment on COLO 205, 21.7 µM (inactive); with SN12C, 37.1 µM (inactive); in the experiment on SNB-75, 10.3 µM (inactive); with OVCAR-3 it was 18.5 µM (inactive). The GI50 in the experiment with TK-10 is 44.2 µM (inactive); with OVCAR-5, 32.7 µM (inactive); with OVCAR-8, 35.5 µM (inactive).
With `COc1ccc(OC)c2c(C(=O)O)c(C(C)c3ccccc3)ccc12` (stereo unspecified), the GI50 in the experiment on NCI-H226, in the experiment on SK-MEL-5, in the experiment with SK-OV-3, in the experiment on UACC-62, in the experiment on SW-620 and in the experiment with EKVX was > 100 µM (inactive) throughout. For the same compound, the GI50 in the experiment with CCRF-CEM, with SF-268, in the experiment on COLO 205, with SN12C, with SNB-75 and with OVCAR-3 was > 100 µM (inactive) each time. For the same compound, the GI50 in the experiment on TK-10, with OVCAR-5, in the experiment on SNB-19 and with OVCAR-8 was > 100 µM (inactive) throughout.
`COC(=O)C(=Cc1cc(OC)ccc1OC)C(=O)OC`: the GI50 in the experiment on NCI-H226 was 53.6 µM (inactive); in the experiment on SK-MEL-5 it was 19.1 µM (inactive); in the experiment with SK-OV-3 it was 31.5 µM (inactive); with UACC-62 it was 20.9 µM (inactive); in the experiment with SW-620, 23.7 µM (inactive); in the experiment with EKVX it was 33.7 µM (inactive). Further, the GI50 was 20 µM (inactive) in the experiment on CCRF-CEM; 34.2 µM (inactive) in the experiment on SF-268; 18.2 µM (inactive) in the experiment on COLO 205; 24.9 µM (inactive) in the experiment with SN12C; 19.9 µM (inactive) in the experiment with SNB-75; 21.2 µM (inactive) in the experiment with OVCAR-3. The GI50 was 36.3 µM (inactive) in the experiment on TK-10, 28.2 µM (inactive) in the experiment on OVCAR-5, 44 µM (inactive) in the experiment on SNB-19 and 30 µM (inactive) with OVCAR-8.
As for `COC(=O)C(C(=O)C(=O)Nc1ccc(Br)cc1)c1nc2ccc(Cl)cc2nc1O` (stereo unspecified), the GI50 with NCI-H226 was 61 µM (inactive); in the experiment with SK-MEL-5, > 100 µM (inactive); with SK-OV-3, > 100 µM (inactive); in the experiment on UACC-62, > 100 µM (inactive); with SW-620, > 20 µM (inactive); with EKVX, > 100 µM (inactive). The GI50 with CCRF-CEM was > 90.2 µM (inactive); with SF-268 it was > 100 µM (inactive); in the experiment on COLO 205, > 45.2 µM (inactive); in the experiment on SN12C it was > 100 µM (inactive); with SNB-75 it was 81.7 µM (inactive); in the experiment with OVCAR-3 it was > 100 µM (inactive). Moreover, the GI50 in the experiment with TK-10, in the experiment on OVCAR-5, in the experiment on SNB-19 and with OVCAR-8 was > 100 µM (inactive) in each case.
Regarding `O=C(O)C[C@@H]1[C@@H](O)[C@@H](O)CN2C(=O)c3ccccc3[C@H]12`, the GI50 with T47D, in the experiment with NCI-H226, with SK-MEL-5, in the experiment with SK-OV-3, in the experiment with UACC-62 and in the experiment with SW-620 was > 100 µM (inactive) in each case. In addition, the GI50 in the experiment with EKVX, in the experiment on NCI/ADR-RES, with SF-268, in the experiment on COLO 205, with DU-145 and in the experiment on SN12C was > 100 µM (inactive) each time. Besides, the GI50 in the experiment with SNB-75, in the experiment with TK-10, in the experiment on OVCAR-5, with SNB-19 and in the experiment with OVCAR-8 was > 100 µM (inactive) in each case.
Turning to `COc1ccc(C2Oc3c(cccc3-c3c(-c4ccc(O)cc4)oc4cc(O)cc(O)c4c3=O)C(=O)C2O)cc1O` (stereo unspecified), the GI50 in the experiment on T47D, in the experiment on NCI-H226, in the experiment with SK-MEL-5, in the experiment with SK-OV-3, with UACC-62 and in the experiment with SW-620 was > 100 µM (inactive) in each case. Moreover, the GI50 with EKVX, with NCI/ADR-RES, with CCRF-CEM, in the experiment on SF-268, with COLO 205 and in the experiment on DU-145 was > 100 µM (inactive) each time. Further, the GI50 with SN12C was > 100 µM (inactive); in the experiment with SNB-75, 60.4 µM (inactive); in the experiment on OVCAR-3, > 100 µM (inactive); in the experiment on TK-10, > 100 µM (inactive); in the experiment on OVCAR-5, > 100 µM (inactive); in the experiment with SNB-19, > 100 µM (inactive). Moreover, the GI50 in the experiment with OVCAR-8 is > 100 µM (inactive).
With `O=c1c2cc([N+](=O)[O-])ccc2[nH]n1Cc1ccccc1Cl`, the GI50 was 74.1 µM (inactive) in the experiment on NCI-H226; 34.7 µM (inactive) in the experiment on SK-MEL-5; > 100 µM (inactive) in the experiment with UACC-62; 88.9 µM (inactive) in the experiment with SW-620; 30.2 µM (inactive) in the experiment with EKVX; 48.8 µM (inactive) in the experiment with Hs-578T. Also, the GI50 with NCI/ADR-RES is 40.6 µM (inactive); in the experiment on CCRF-CEM it was 85.5 µM (inactive); in the experiment on SF-268 it was > 100 µM (inactive); in the experiment with COLO 205 it was 73.3 µM (inactive); with DU-145 it was 47 µM (inactive); in the experiment on SN12C it was 86.1 µM (inactive). Moreover, the GI50 in the experiment with SNB-75 was > 100 µM (inactive); in the experiment with OVCAR-3, > 100 µM (inactive); in the experiment with TK-10 it was 18.2 µM (inactive); in the experiment with OVCAR-5, > 100 µM (inactive); in the experiment on SNB-19, > 100 µM (inactive); with OVCAR-8, 75.7 µM (inactive).
For the compound `Cc1c(/C=N/NC(=S)Nc2ccc([N+](=O)[O-])cc2)c(=O)n(-c2ccccc2)n1C`, the GI50 in the experiment on NCI-H226 is 10.8 µM (inactive); with SK-MEL-5, 33.8 µM (inactive); in the experiment on SK-OV-3, 13.5 µM (inactive); in the experiment on UACC-62 it was 17.6 µM (inactive); in the experiment with SW-620 it was 25.6 µM (inactive); with EKVX, 10.1 µM (inactive). In addition, the GI50 in the experiment on Hs-578T was 15.8 µM (inactive); with NCI/ADR-RES, 9.66 µM (inactive); in the experiment with CCRF-CEM it was 7.29 µM (inactive); in the experiment on SF-268, 13.5 µM (inactive); in the experiment on COLO 205, 50.4 µM (inactive); in the experiment on SNB-75, 13.3 µM (inactive). The GI50 with TK-10 is 11.8 µM (inactive); in the experiment on SNB-19, 16 µM (inactive); in the experiment on OVCAR-8 it was 13.6 µM (inactive).
Consider `COc1ccc2cc1Oc1ccc(cc1)C[C@H]1c3cc(c(OC)cc3CCN1C)Oc1c(OC)c(OC)cc3c1[C@H](C2)N(C)CC3` [FANCHININ], for which the GI50 in the experiment on SK-MEL-5 is 6.1 µM (inactive) and 57.3 µM (inactive); in the experiment on SK-OV-3, 5.9 µM (inactive) and 45.8 µM (inactive); in the experiment with Hs-578T, 8.63 µM (inactive) and 30.1 µM (inactive); with CCRF-CEM, 33 µM (inactive) and 3.54 µM (inactive); in the experiment on SF-268 it was 74.6 µM (inactive) and 8.05 µM (inactive); in the experiment on SNB-75, 43.2 µM (inactive) and 6.55 µM (inactive). Besides, the GI50 in the experiment on OVCAR-3 is 7.46 µM (inactive); with TK-10, 22.9 µM (inactive) and 8.41 µM (inactive); in the experiment on SNB-19 it was 17.4 µM (inactive) and 6.61 µM (inactive); in the experiment on OVCAR-8 it was 8.38 µM (inactive) and 53.7 µM (inactive).

(Values after ChEMBL document CHEMBL1201862, “PubChem BioAssay data set” (2004).)
